The values below come from patent US20080140138A1, “Inhibition of inflammatory cytokine production by stimulation of brain muscarinic receptors” (priority 2002, published 2008).

The test system of one experiment is alpha 1 adrenergic. Description: NovaScreen receptor binding panel, CNI-1493 at 10 μM. The following applies: average of duplicate tubes. As to the method:
(§1) Method of determining CNI-1493 receptor binding. CNI-1493 was tested at a single concentration (10 μM) in a panel of receptor binding assays by NovaScreen Biosciences Corporation (Hanover, Md.). Values were expressed as the percent inhibition of specific binding, and represented the average of duplicate tubes. Method of stereotactic intracerebroventricular injections. A rat model of intracerebroventricular (i.c.v.) injections was established in order to be able to directly deliver pharmacological agents into the brain of rats. This was necessary in order to separate drug effects on peripheral inflammation that occurred through central versus peripheral mechanisms. Lewis rats were anaesthetized with urethane (1 g/kg, i.p.) and xylazine (15 mg/rat, i.m. (intramuscular)). Rats were then placed in a stereotactic head frame (Stoelting, Wood Dale, Ill., USA). The incisor bar was adjusted until the plane defined by the lambda and bregma was parallel to the base plate. For i.c.v. injections the needle of a Hamilton syringe (25 μl) was positioned stereotactically above the lateral ventricle (0.2 mm and 1.5 mm posterior to bregma, 3.2 mm below the dura.) Solutions of the drugs tested were prepared in sterile endotoxin-free water, at the specified concentrations, and a 10-μl injection/rat was administered over 2 min, 1 h prior to either carrageenan injection, or to LPS.

The target of experiment [1] is Muscarinic, M1 (Human recombinant) (Homo sapiens, UniProt P11229). Description: NovaScreen muscarinic receptor binding panel. The following applies: 10 μM, average of duplicate tubes. As to the method: (§2) Method of determining muscarinic receptor subtype. CNI-1493 was tested at a single concentration (10 μM) in a panel of muscarinic receptor binding assays by NovaScreen Biosciences Corporation (Hanover, Md.). Values were expressed as the percent inhibition of specific binding, and represented the average of duplicate tubes.

For a further experiment, the system named is Muscarinic, M1. As to the kind of experiment: NovaScreen muscarinic receptor binding panel. The following applies: 10 μM, average of duplicate tubes. The procedure:
as §2

Experiment [2] deals with Muscarinic, M2 (Human recombinant) (Homo sapiens, UniProt P08172). Description: NovaScreen muscarinic receptor binding panel. The following applies: 10 μM, average of duplicate tubes. As to the method:
as §2

The next experiment deals with Muscarinic, M2. As to the kind of experiment: NovaScreen muscarinic receptor binding panel. Particulars: 10 μM, average of duplicate tubes. The procedure: as §2
Experiment [3] has as its target T1, Muscarinic, M3 (Human recombinant) (Homo sapiens, UniProt P20309).
T1 construct: NovaScreen Biosciences Corporation (contract laboratory that ran the assay)
Description: NovaScreen muscarinic receptor binding panel. Particulars: 10 μM, average of duplicate tubes. The procedure:
as §2

A further experiment relates to Muscarinic, M3. As to the kind of experiment: NovaScreen muscarinic receptor binding panel. Particulars: 10 μM, average of duplicate tubes. As to the method: as §2
Experiment [4] concerns the target T2, Muscarinic, M4 (Human recombinant) (Homo sapiens, UniProt P08173).
T2 construct: NovaScreen Biosciences Corporation (contract laboratory that ran the assay)
Description: NovaScreen muscarinic receptor binding panel. The following applies: 10 μM, average of duplicate tubes. The procedure: as §2

Experiment [5] concerns the target T3, Muscarinic, M5 (Human recombinant) (Homo sapiens, UniProt P08912).
T3 construct: NovaScreen Biosciences Corporation (contract laboratory that ran the assay)
As to the kind of experiment: NovaScreen muscarinic receptor binding panel. The following applies: 10 μM, average of duplicate tubes. As to the method:
as §2

The subject of another experiment is LPS-induced serum TNF. Description: LPS-induced serum TNF after i.c.v. drug injection, L929 bioactivity assay. The class given is in vivo, Lewis rats. The following applies: 5 μg/rat i.c.v., 1 h before LPS 15 mg/kg i.v.; blood 2 h post LPS.
In experiment [6] the test system is carrageenan-induced hindpaw edema. As to the kind of experiment: Carrageenan-induced hindpaw edema. The class given is in vivo, Lewis rats. Particulars: CNI-1493 5 μg/rat i.c.v., 1 h before carrageenan; edema 3 h post carrageenan. As to the method:
as §1
The tested drugs, in either the carrageenan and/or LPS experiments, were: saline control; fluoxetine hydrochloride, (also known as Prozak) (0.01 mg/100 g); muscarine (50 μg/rat, 5 μg/rat, 0.5 μg/rat, 0.05 μg/rat, 0.005 μg/rat); 4-(N-[3-chlorophenyl]carbamoyloxy)-2-butynyltrimethylammonium chloride (also known as McN-A-343) (5 μg/rat); Muscarinic Toxin-3, (also known as MT-3) from Dendroaspis angusticeps snake venom (0.37 μg/rat); nicotine (10 μg/rat); CNI-1493 (1 μg/kg, 50 μg/rat); atropine (1 μg/kg, 5 μg/rat); CNI-1493 plus atropine (1 μg/kg of each of the drugs; 50 μg/rat, 5 μg/rat respectively); naloxone hydrochloride (2 μg/rat), CNI-1493 plus naloxone (50 μg/rat+5 μg/rat respectively); and morphine (20 μg/rat).
Method of carrageenan-induced hindpaw edema. Paw edema was induced in anaesthetized rats by injection of 1% solution of 1-carrageenan (100 μl) into the plantar surface of the left hindpaw. The right hindpaw was injected with the same volume of saline alone (as control). The thickness of the carrageenan-treated and saline-treated hindpaw was measured using a caliper at 3 h post carrageenan, and the difference between paw thickness calculated as an index of inflammation (paw swelling). Method of LPS injections and TNF determination. LPS (15 mg/kg, i.v.) was injected in the tail vein 1 h after drug injection. Blood was obtained 2 h post LPS injection by paraorbital bleeding. Serum TNF concentrations were determined by an L929 bioactivity assay. Method of assessing TNF by the L929 bioactivity assay. L929 cells were suspended in Dulbecco's minimal Eagle's medium (DMEM; GibcoBRL) supplemented with fetal bovine serum (10%; Hyclone) and penicillin/streptomycin (0.5%; Sigma Chemical Co.), and plated at 2×10^4 cells per well in 96-well flat-bottomed microtiter plates. After 24 h, media were respirated and replaced with medium containing cycloheximide (10 μg/ml; Sigma Chemical Co.) and the samples to be assayed/TNF standards. Plates were incubated overnight, at which time cell viability as a function of TNF concentration was assessed by the MTT assay. Absorbance values were converted to units per milliliter by comparison with a standard curve for rat TNF.
In a third set of experiments, rats were injected by i.c.v. means with either saline (n=4), CNI-1493 (5 μg/rat, n=3), CNI-1493 plus atropine (5 μg/rat each), or atropine (5 μg/rat). Carrageenan was given to the animals 1 h later, and paw edema was determined 3 h post carrageenan. […]

Muscarinic, M1 (Human recombinant), sequence (P11229 whole entry): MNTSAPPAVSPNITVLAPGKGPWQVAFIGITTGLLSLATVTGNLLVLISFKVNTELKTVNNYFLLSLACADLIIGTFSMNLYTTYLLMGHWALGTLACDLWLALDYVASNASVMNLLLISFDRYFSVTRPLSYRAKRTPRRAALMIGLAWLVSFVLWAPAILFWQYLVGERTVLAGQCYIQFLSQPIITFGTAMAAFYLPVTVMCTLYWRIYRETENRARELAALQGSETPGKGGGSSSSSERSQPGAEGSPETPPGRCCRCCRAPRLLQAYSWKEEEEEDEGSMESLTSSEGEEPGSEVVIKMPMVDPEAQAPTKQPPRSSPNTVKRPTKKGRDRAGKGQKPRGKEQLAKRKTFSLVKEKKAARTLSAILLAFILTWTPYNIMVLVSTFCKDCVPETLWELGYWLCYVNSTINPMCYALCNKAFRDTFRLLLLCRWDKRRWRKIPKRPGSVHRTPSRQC
Muscarinic, M2 (Human recombinant), sequence (P08172 whole entry): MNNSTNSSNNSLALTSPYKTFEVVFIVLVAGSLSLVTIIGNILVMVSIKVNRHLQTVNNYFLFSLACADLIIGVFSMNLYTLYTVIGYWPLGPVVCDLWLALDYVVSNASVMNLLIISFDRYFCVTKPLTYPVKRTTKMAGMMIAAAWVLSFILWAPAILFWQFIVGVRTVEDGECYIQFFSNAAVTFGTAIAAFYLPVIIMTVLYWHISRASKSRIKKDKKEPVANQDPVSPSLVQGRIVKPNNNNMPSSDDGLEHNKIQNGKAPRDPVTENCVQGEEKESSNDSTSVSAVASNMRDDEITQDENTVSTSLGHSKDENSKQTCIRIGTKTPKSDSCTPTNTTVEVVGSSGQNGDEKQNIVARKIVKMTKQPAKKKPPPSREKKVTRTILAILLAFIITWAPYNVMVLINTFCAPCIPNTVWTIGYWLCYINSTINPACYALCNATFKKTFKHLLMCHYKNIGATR
T1 sequence (P20309 whole entry): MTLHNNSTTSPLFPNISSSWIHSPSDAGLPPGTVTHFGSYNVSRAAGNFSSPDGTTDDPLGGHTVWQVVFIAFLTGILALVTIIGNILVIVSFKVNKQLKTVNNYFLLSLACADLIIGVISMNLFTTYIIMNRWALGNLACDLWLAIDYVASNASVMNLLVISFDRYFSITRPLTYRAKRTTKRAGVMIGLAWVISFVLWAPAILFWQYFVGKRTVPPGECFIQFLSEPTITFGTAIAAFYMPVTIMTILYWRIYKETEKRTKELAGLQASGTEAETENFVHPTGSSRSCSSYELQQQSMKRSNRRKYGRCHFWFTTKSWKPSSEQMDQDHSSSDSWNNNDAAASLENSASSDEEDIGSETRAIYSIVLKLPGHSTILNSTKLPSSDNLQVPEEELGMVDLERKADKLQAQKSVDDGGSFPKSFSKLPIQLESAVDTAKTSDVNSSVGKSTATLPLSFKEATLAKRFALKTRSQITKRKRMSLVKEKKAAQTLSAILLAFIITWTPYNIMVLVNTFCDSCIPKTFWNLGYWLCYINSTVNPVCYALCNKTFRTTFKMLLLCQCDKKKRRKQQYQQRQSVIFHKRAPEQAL
T2 sequence (P08173 whole entry): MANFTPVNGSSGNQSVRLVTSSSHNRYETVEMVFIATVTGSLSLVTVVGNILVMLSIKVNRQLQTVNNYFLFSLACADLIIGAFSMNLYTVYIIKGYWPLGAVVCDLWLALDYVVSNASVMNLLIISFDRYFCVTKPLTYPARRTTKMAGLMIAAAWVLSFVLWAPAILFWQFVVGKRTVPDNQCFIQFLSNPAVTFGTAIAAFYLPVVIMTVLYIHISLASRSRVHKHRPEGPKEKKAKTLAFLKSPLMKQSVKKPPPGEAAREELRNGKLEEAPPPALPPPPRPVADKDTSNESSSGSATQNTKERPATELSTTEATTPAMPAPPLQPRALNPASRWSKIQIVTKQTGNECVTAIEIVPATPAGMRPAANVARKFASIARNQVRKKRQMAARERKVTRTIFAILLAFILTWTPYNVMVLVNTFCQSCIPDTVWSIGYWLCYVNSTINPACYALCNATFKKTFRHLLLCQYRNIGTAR
T3 sequence (P08912 whole entry): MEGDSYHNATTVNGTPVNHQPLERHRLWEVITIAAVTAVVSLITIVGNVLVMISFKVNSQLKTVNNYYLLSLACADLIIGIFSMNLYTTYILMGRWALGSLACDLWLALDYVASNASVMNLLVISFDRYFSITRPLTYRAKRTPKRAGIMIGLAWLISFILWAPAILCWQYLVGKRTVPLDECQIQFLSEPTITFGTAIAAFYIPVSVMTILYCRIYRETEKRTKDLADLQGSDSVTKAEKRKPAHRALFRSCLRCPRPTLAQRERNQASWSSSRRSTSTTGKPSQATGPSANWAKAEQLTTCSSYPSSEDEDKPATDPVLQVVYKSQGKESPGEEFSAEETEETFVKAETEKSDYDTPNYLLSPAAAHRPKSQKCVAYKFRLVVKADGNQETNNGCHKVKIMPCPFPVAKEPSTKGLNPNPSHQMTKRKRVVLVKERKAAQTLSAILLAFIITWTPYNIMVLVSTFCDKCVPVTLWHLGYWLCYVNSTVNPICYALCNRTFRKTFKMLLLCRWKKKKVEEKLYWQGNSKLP
Description for LPS-induced serum TNF: Method of stereotactic intracerebroventricular injections. […] Lewis rats were anaesthetized with urethane (1 g/kg, i.p.) and xylazine (15 mg/rat, i.m. (intramuscular)). Rats were then placed in a stereotactic head frame (Stoelting, Wood Dale, Ill., USA). The incisor bar was adjusted until the plane defined by the lambda and bregma was parallel to the base plate. For i.c.v. injections the needle of a Hamilton syringe (25 μl) was positioned stereotactically above the lateral ventricle (0.2 mm and 1.5 mm posterior to bregma, 3.2 mm below the dura.) Solutions of the drugs tested were prepared in sterile endotoxin-free water, at the specified concentrations, and a 10-μl injection/rat was administered over 2 min, 1 h prior to either carrageenan injection, or to LPS.
In one set of experiments, rats were injected by i.c.v. means with either saline (n=1), CNI-1493 (5 μg/rat, n=3), CNI-1493 plus atropine (5 μg/rat each), or atropine (5 μg/rat). LPS (15 mg/kg, i.v.) was given 1 h later. Blood was collected 2 h post LPS administration. Serum TNF was determined by the L929 assay.

Turning to `CC(=NNC(=N)N)c1cc(NC(=O)CCCCCCCCC(=O)Nc2cc(C(C)=NNC(=N)N)cc(C(C)=NNC(=N)N)c2)cc(C(C)=NNC(=N)N)c1.Cl.Cl.Cl.Cl` [CNI-1493, N,N′-bis(3,5-diacetylphenyl) decanediamide tetrakis (amidinohydrazone) tetrahydrochloride], the “percent inhibition of specific binding” value in the experiment with alpha 1 adrenergic worked out at 89.7%. Further, the Percent inhibition in experiment [1] stood at 72%; in the experiment on Muscarinic, M1 it was 83%; in [2], 58%; in the experiment on Muscarinic, M2, 85%; in experiment [3] it was 40%; in the experiment on Muscarinic, M3 it was 9%. Also, the Percent inhibition in experiment [4] amounted to 57%; in [5], 43%. Besides, the “inhibition of LPS-induced serum TNF levels” value with LPS-induced serum TNF is “more than 80%”. Also, the “inhibition of carrageenan-induced paw edema” value in experiment [6] is listed as “significantly inhibits”.
